Experimental data published in US20250161228A1, “COMPOSITIONS COMPRISING ULTRAFINE BUBBLES AND METHODS OF USING THEREOF IN A METHOD OF PRODUCING AND DELIVERING ACTIVE PHARMACEUTICAL INGREDIENTS AND OTHER DISSOLVED SOLUTES” (Hydrosome IP, LLC, priority 2023, published 2025).

System: Human embryonic kidney (HEK) cells
Test: Intracellular zinc uptake study, colorimetric assay at 540 nm
Assay type: cell-based
Procedure: Human embryonic kidney (HEK) cells were treated with a composition prepared in accordance with the disclosure, the composition comprising zinc in a Cellular Hydration Water Advanced Zinc Formulation (Zinc Formulation) to test intracellular zinc uptake in vitro. The composition comprised 93 micromolar zinc (II) ions. The HEK cells were treated with compositions comprising 10%, 50%, or 100% Zinc Formulation. Zinc content was measured at 15, 30, 45, and 60 minutes using a colorimetric assay measuring light absorbance at 540 nm. The changes in intracellular zinc content were compared to a control group of HEK cells treated with a ZnSO4 solution.

## O=S(=O)([O-])[O-].[Zn+2] [ZnSO4]
10% composition or its ZnSO4 control, 30 minutes
  increase in intracellular zinc content: 20.4%
50% composition or its ZnSO4 control, 15 minutes
  increase in intracellular zinc content: 42%
50% composition or its ZnSO4 control, 30 minutes
  increase in intracellular zinc content: 29.6%
50% composition or its ZnSO4 control, 60 minutes
  increase in intracellular zinc content: 42.2%
